Reference: patent publication US11236129B2, “IL-17A binding peptides and medical uses thereof” (Dompe' Farmaceutici S.P.A., priority 2018, dated 2022)
Where two headings read alike, the source gives them in different places. Residues, ends and D or L forms follow the SMILES beside them.

Columns and labels:
[1] = target: IL-17RA/IL17RC dimerization induced by IL-17A (Homo sapiens, UniProt Q16552); assay: IL-17RA/IL17RC dimerization assay in response to IL-17A (PathHunter Cytokine Receptor Assay); type: cell-based; details: IL-17A at EC80; read-out: IC50 in IL-17RA/IL7RC dimerization assay
IL-17RA/IL17RC dimerization induced by IL-17A, sequence (Q16552 24-155): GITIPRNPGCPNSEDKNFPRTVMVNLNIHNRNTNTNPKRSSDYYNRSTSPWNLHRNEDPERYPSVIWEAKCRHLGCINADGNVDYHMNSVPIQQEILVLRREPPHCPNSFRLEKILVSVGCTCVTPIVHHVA
How it was run: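 Receptor dimerization was read as chemiluminescence from complemented β-galactosidase after IL-17A at EC80 concentration for 6–16 h at 37 °C. Peptides were added 60 min before agonist, at 37 °C or room temperature, with 1% vehicle. Percent inhibition used the EC80-stimulated and vehicle wells as references.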

[2] = Isoelectric point, log D and log P (SiriusT3); type: physicochemical; details: for IP (isoelectric point): 25±1° C., 0.15 M KCl
Experimental: The main physicochemical properties (Isoelectric point (IP), log D (7.4) and log P) of the peptides of Table 8 below were determined by using the SiriusT3 apparatus (Sirius Analytical Instruments Ltd., East Sussex, UK) equipped with an Ag/AgCl double junction reference pH electrode, a Sirius D-PAS spectrometer and a turbidity sensing device. […] An overhead stirrer was used and a temperature probe (Peltier controller) monitored the temperature during the course of the titration. The titration experiments were conducted in 0.15 M KCl Ionic Strength Adjusted solution (ISA water) under a nitrogen atmosphere at a temperature of 25±1° C. All tests were performed using standardized 0.5 M KOH and 0.5 M HCl as titration reagents, for the partition coefficient tests a saturated Octanol in ISA water (5% of ISA water) was used as partition solvent. The pKas were determined by potentiometric method by pH-metric titration. The powder (around 0.5 mg) was dissolved in 1.5 ml of ISA water and the titration was performed in triplicate in the pH range 2.0−12.0.

[3] = type: physicochemical; details: pH 7.8
Experimental: Each lyophilized peptide was weighed in an amber vial. A calculated volume of phosphate buffered solution at pH 7.8 was added in order to directly obtain 10 mM Stock Solutions. The recovered suspensions were stirred for 30 minutes by orbital shaker incubator at 37° C. Subsequent dilutions were performed to obtain the more diluted stock solutions for the less soluble compounds.
In order to evaluate the stability and the solubility, all the stock solutions were stored at 25° C. The title was evaluated by UHPLC-MS analysis in comparison with the standard solutions, at 3 time points: T0, 3 days, 1 week.
The chromatographic profile was evaluated for the quantitative assay while the MS spectra were detected as support in the stability studies.
Each peptide was weighed and directly diluted at 100 μM with the phosphate buffer at pH 7.8. The solutions were stirred for 5 minutes by vortex and heated at 37° C. for 20 minutes. The obtained standard solution was stored at 25° C. in the dark under controlled temperature.
A portion of the stock solutions was collected in an amber vial and diluted to 100 μM by phosphate buffer at pH 7.8 (dilution factor, 1:100).
Reversed-phase UHPLC was performed operating at a flow rate of 0.3 ml/min with a Luna Omega Polar C18 column ([…] 1.6 μm, 2.1×100 mm). Solvent A was 0.5% Formic Acid in water and solvent B was 0.5% Formic Acid in acetonitrile. First, samples were loaded onto the column and washed isocratically at 10% B for 3 min. Then, a gradient of 10-95% B was run over 22 min, held at 95% for 2 min, and then decreased to 10% over 1 min and held, for the pressure stabilization, for 5 min. UV Absorption was monitored by DAD (220-400 nm). ESI-MS ion trap was used for the monitoring of TIC.

[4] = octanol/ISA water, read-out: logP
[5] = pH 7.4, pH 7.4, octanol/ISA water, read-out: Log D (7.4)

Structure (SMILES)	IC50 [1]	IP (isoelectric point) [2]	logP [2, 4]	logD [2, 5]	solubility [3]	logP ([2]; logP)	logD ([2]; pH 7.4, Log D (7.4))	logP [2]	Log D (7.4) ([2]; pH 7.4)
CC[C@H](C)[C@H](NC(C)=O)C(=O)N[C@@H](CCSC)C(=O)N[C@H](C(=O)N[C@H](C(=O)N[C@H](C(=O)N1CCC[C@H]1C(=O)N[C@@H](C)C(=O)N[C@@H](CC(=O)O)C(=O)N[C@@H](CC(C)C)C(=O)N[C@@H](Cc1c[nH]c2ccccc12)C(=O)N[C@@H](CC(=O)O)C(=O)N[C@@H](Cc1c[nH]c2ccccc12)C(=O)N[C@H](C(=O)N[C@@H](CC(N)=O)C(=O)N[C@@H](CCCCN)C(N)=O)[C@@H](C)CC)[C@@H](C)CC)[C@@H](C)O)C(C)C [SEQ ID NO: 3] (Ac-IMVTIPADLWDWINK-NH2)	< 0.4 µM	3.90	1.33	-1.87	≥ 0.01 mM				
CC[C@H](C)[C@H](NC(=O)[C@H](Cc1c[nH]c2ccccc12)NC(=O)[C@H](CC(=O)O)NC(=O)[C@H](Cc1c[nH]c2ccccc12)NC(=O)[C@H](CC(C)C)NC(=O)[C@H](CC(=O)O)NC(=O)[C@H](C)NC(=O)[C@@H]1CCCN1C(=O)[C@@H](NC(=O)[C@@H](NC(=O)[C@@H](NC(=O)[C@H](CCSC)NC(=O)[C@@H](NC(C)=O)C(C)C)C(C)C)[C@@H](C)O)[C@@H](C)CC)C(=O)N[C@@H](CC(N)=O)C(=O)N[C@@H](CCCCN)C(N)=O [SEQ ID NO: 4] (Ac-VMVTIPADLWDWINK-NH2)	< 0.1 µM	3.90	1.88	-1.32	≥ 0.02 mM				
CC[C@H](C)[C@H](NC(C)=O)C(=O)N[C@@H](Cc1c[nH]cn1)C(=O)N[C@H](C(=O)N[C@H](C(=O)N[C@H](C(=O)N1CCC[C@H]1C(=O)N[C@@H](C)C(=O)N[C@@H](CCC(=O)O)C(=O)N[C@@H](CC(C)C)C(=O)N[C@@H](Cc1c[nH]c2ccccc12)C(=O)N[C@@H](CC(=O)O)C(=O)N[C@@H](Cc1c[nH]c2ccccc12)C(=O)N[C@H](C(=O)N[C@@H](CC(N)=O)C(=O)N[C@@H](CCCCN)C(N)=O)[C@@H](C)CC)[C@@H](C)CC)[C@@H](C)O)C(C)C [SEQ ID NO: 5] (Ac-IHVTIPAELWDWINK-NH2)	< 0.1 µM	5.19	-0.51	-1.26	≥ 1 mM				
CC[C@H](C)[C@H](NC(C)=O)C(=O)N[C@@H](Cc1c[nH]cn1)C(=O)N[C@H](C(=O)N[C@H](C(=O)N[C@H](C(=O)N1CCC[C@H]1C(=O)N[C@@H](C)C(=O)N[C@@H](CC(=O)O)C(=O)N[C@@H](CC(C)C)C(=O)N[C@@H](Cc1ccc(O)cc1)C(=O)N[C@@H](CC(=O)O)C(=O)N[C@@H](Cc1c[nH]c2ccccc12)C(=O)N[C@H](C(=O)N[C@@H](CC(N)=O)C(=O)N[C@@H](CCCCN)C(N)=O)[C@@H](C)CC)[C@@H](C)CC)[C@@H](C)O)C(C)C [SEQ ID NO: 6] (Ac-IHVTIPADLYDWINK-NH2)	< 0.4 µM	5.14			> 10 mM	-0.37	-3.65		
CC[C@H](C)[C@H](NC(C)=O)C(=O)N[C@@H](Cc1c[nH]cn1)C(=O)N[C@H](C(=O)N[C@H](C(=O)N[C@H](C(=O)N1CCC[C@H]1C(=O)N[C@@H](C)C(=O)N[C@@H](CC(=O)O)C(=O)N[C@@H](CC(C)C)C(=O)N[C@@H](Cc1c[nH]c2ccccc12)C(=O)N[C@@H](CC(=O)O)C(=O)N[C@@H](Cc1c[nH]c2ccccc12)C(=O)N[C@H](C(=O)N[C@@H](CC(N)=O)C(=O)N[C@@H](CCCCN)C(N)=O)C(C)C)[C@@H](C)CC)[C@@H](C)O)C(C)C [SEQ ID NO: 8] (Ac-IHVTIPADLWDWVNK-NH2)	< 0.2 µM	5.14			> 10 mM	-5.12	-4.06		
CC[C@H](C)[C@H](NC(C)=O)C(=O)N[C@@H](Cc1c[nH]cn1)C(=O)N[C@H](C(=O)N[C@H](C(=O)N[C@H](C(=O)N1CCC[C@H]1C(=O)N[C@@H](C)C(=O)N[C@@H](CC(=O)O)C(=O)N[C@@H](CC(C)C)C(=O)N[C@@H](Cc1c[nH]c2ccccc12)C(=O)N[C@@H](CC(=O)O)C(=O)N[C@@H](Cc1c[nH]c2ccccc12)C(=O)N[C@H](C(=O)N[C@@H](CCCNC(=N)N)C(=O)N[C@@H](CCCCN)C(N)=O)[C@@H](C)CC)[C@@H](C)CC)[C@@H](C)O)C(C)C [SEQ ID NO: 9] (Ac-IHVTIPADLWDWIRK-NH2)	< 0.3 µM	8.28			> 10 mM	-0.53	-1.08		
CC[C@H](C)[C@H](NC(C)=O)C(=O)N[C@@H](Cc1c[nH]cn1)C(=O)N[C@H](C(=O)N[C@H](C(=O)N[C@H](C(=O)N1CCC[C@H]1C(=O)N[C@@H](C)C(=O)N[C@@H](CC(=O)O)C(=O)N[C@@H](CC(C)C)C(=O)N[C@@H](Cc1c[nH]c2ccccc12)C(=O)N[C@@H](CC(=O)O)C(=O)N[C@@H](Cc1c[nH]c2ccccc12)C(=O)N[C@H](C(=O)N[C@@H](CC(N)=O)C(=O)N[C@@H](CCCNC(=N)N)C(N)=O)[C@@H](C)CC)[C@@H](C)CC)[C@@H](C)O)C(C)C [SEQ ID NO: 10] (Ac-IHVTIPADLWDWINR-NH2)	< 0.4 µM	5.14			> 10 mM	0.09	-3.66		
CC[C@H](C)[C@H](NC(C)=O)C(=O)N[C@@H](Cc1c[nH]cn1)C(=O)N[C@H](C(=O)N[C@H](C(=O)N[C@H](C(=O)N1CCC[C@H]1C(=O)N[C@@H](C)C(=O)N[C@@H](CC(=O)O)C(=O)N[C@@H](CC(C)C)C(=O)N[C@@H](Cc1c[nH]c2ccccc12)C(=O)N[C@@H](CC(=O)O)C(=O)N[C@@H](Cc1c[nH]c2ccccc12)C(=O)N[C@H](C(=O)N[C@@H](CC(N)=O)C(=O)N[C@@H](CCC(=O)O)C(N)=O)[C@@H](C)CC)[C@@H](C)CC)[C@@H](C)O)C(C)C [SEQ ID NO: 12, IHVTIPADLWDWINE] (Ac-IHVTIPADLWDWINE-NH2)	< 0.2 µM	3.66			≥ 0.01 mM	1.31	-5.24		
CC[C@H](C)[C@H](NC(C)=O)C(=O)N[C@@H](Cc1c[nH]cn1)C(=O)N[C@H](C(=O)N[C@H](C(=O)N[C@H](C(=O)N1CCC[C@H]1C(=O)N[C@@H](C)C(=O)N[C@@H](CC(=O)O)C(=O)N[C@@H](CC(C)C)C(=O)N[C@@H](Cc1ccc(O)cc1)C(=O)N[C@@H](CCC(=O)O)C(=O)N[C@@H](Cc1c[nH]c2ccccc12)C(=O)N[C@H](C(=O)N[C@@H](CC(N)=O)C(=O)N[C@@H](CCCCN)C(N)=O)[C@@H](C)CC)[C@@H](C)CC)[C@@H](C)O)C(C)C [SEQ ID NO: 13] (Ac-IHVTIPADLYEWINK-NH2)		6.06			>10 mM			−0.49	1.15
CC[C@H](C)[C@H](NC(=O)[C@H](Cc1c[nH]c2ccccc12)NC(=O)[C@H](CCC(=O)O)NC(=O)[C@H](Cc1ccc(O)cc1)NC(=O)[C@H](CC(C)C)NC(=O)[C@H](CC(=O)O)NC(=O)[C@H](C)NC(=O)[C@@H]1CCCN1C(=O)[C@@H](NC(=O)[C@@H](NC(=O)[C@@H](NC(=O)[C@H](CCSC)NC(=O)[C@@H](NC(=O)CNC(=O)[C@H](C)NC(=O)CNC(=O)[C@@H]1CCCN1C(=O)[C@@H](NC(=O)CNC(=O)[C@H](C)NC(=O)CNC(=O)[C@@H]1CCCN1C(=O)[C@@H](NC(C)=O)C(C)C)C(C)C)C(C)C)C(C)C)[C@@H](C)O)[C@@H](C)CC)C(=O)N[C@@H](CCC(=O)O)C(=O)N[C@@H](CCC(=O)O)C(N)=O [SEQ ID NO: 38]		5.14	-5.88	-3.46	> 10 mM				
